Legend:
Format in all cases: in vivo
[1] = tested on: fighting episodes in mice; experiment: Suppression of fighting behavior (electric foot-shock induced fighting); details: Mus musculus; female mice, oral, 60 min before foot-shock for 3 min; dose to suppress 50% of fighting pairs
Procedure: I. suppression of Fighting Behavior
Fighting episodes were produced in mice by the method described by Tedeschi et al in Journal of Pharmacology and Experimental Therapeutics, Vol. 125, pp. 28 ff. (1959). Groups of 8 female mice (4 pairs) were given orally, the test compound 60 minutes prior to receiving electric foot-shock for 3 minutes with 530 volts of interrupted direct current, 1.3 milliamperes, 10 Hz. […] The control mice of 81 pairs had shown the fighting episodes of 8.7 times on the average under the same conditions. The ED50, a dose required to suppress 50% of fighting pairs was determined graphically.

[2] = Anti-pentylenetetrazole effect (prevention of death); details: Mus musculus, ip; mice, intraperitoneal, 15 min before pentylenetetrazole 150 mg/kg s.c.; dead mice counted at 3 hours; read-out: Antipentylenetetrazole Effect ED50
Procedure: Ii. anti-pentylenetetrazole Effect
Pentylenetetrazole (150 mg/kg) was administered subcutaneously to groups, each of 6 mice, 15 minutes after intraperitoneal administration of the test compound. The number of dead mice were counted 3 hours after the administration of pentylenetetrazole, and then the ED50, a dose required to reduce the number of dead mice to 50%, was determined graphically.

[3] = Anti-megimide effect (prevention of tonic extensor convulsion); details: Mus musculus, ip; mice, intraperitoneal, 60 min before megimide 80 mg/kg s.c.; tonic extensor convulsion prevented for 3 hours in 50%; read-out: Antimegimide Effect ED50
Procedure: Iii. anti-megimide Effect
Megimide (80 mg/kg) was administered subcutaneously to groups, each of 6 mice, 60 minutes after intra-peritoneal administration of the test compound. The ED50, a dose required to prevent for 3 hours, the tonic extensor convulsion induced by the administration of megimide in 50% of the animals, was determined graphically.

Row | Compound | ED50 [1] [mg/kg] | ED50 [2] [mg/kg] | ED50 [3] [mg/kg]
1 | CCc1cc2c(s1)-n1c(n[nH]c1=O)CN=C2c1ccccc1Br [C, 6-o-Bromophenyl-8-ethyl-1,2-dihydro-4H-s-triazolo[3,4-c]-thieno[2,3-e]-[1,4]diazepin-1-one] | 2.7 | 2.6 | 7.2
2 | Cc1cc2c(s1)-n1c(nn(C)c1=O)CN=C2c1ccccc1Cl [A, 2,8-Dimethyl-6-o-chlorophenyl-1,2-dihydro-4H-s-triazolo [3,4-c]-thieno[2,3-e][1,4]diazepin-1-one] | 4.8 | 0.9 | 1.3
3 | CCc1cc2c(s1)-n1c(nn(C)c1=O)CN=C2c1ccccc1Cl [B, 2-Methyl-6-o-chlorophenyl-8-ethyl-1,2-dihydro-4H-s-triazolo[3,4-c]-thieno[2,3-e][1,4]diazepin-1-one] | 0.8 | 1.4 | 5.7
